Measurements as given in US5712265A (The General Hospital Corporation, priority 1995, dated 1998).
Where a name gives a salt, the structure may show the parent alone. Read-outs that look alike come from different tables or passages of the source.

Experiments:
[1] = in vivo; cited from earlier work
[2] = cited from earlier work
[3] = 3.0 and 6.0 μg/kg intramuscularly at 11:00 pm; cited from earlier work
[4] = in vivo; cited from earlier work; remark: listed apart in the source
[5] = test system: 3-hydroxy-3-methylglutaryl coenzyme A (HMG-CoA) reductase; details: cited from earlier work
[6] = 7.5 to 20 mg daily by mouth; cited from earlier work
[7] = 2.5 mg once, cited from earlier work
[8] = Timed administration of methyl scopolamine, long-term effects (Example 7); type: in vivo, Sprague-Dawley rat; details: for Retroperitoneal Fat: 0.5 mg/kg BW two weeks
Protocol: Methylscopolamine (MSC) (0.5 mg/kgBW) in 1 mL peanut butter was fed at light onset (AM) or at light offset (PM) to 9 Sprague-Dawley rats (30 weeks old) in each group daily for two weeks. Nine-other rats were fed only peanut butter. 18 days after the last treatment, the rats were sacrificed and the indices in Table 6 were measured.

[9] = for Cholesterol / HDL-Chol / Plasma Glucose / Plasma Insulin / Reproperitoneal Fat / Triglyceride: 18 days after last treatment; for Food Consumption: P 4 mg/kg or M 500 μg/kg oral, two weeks
Protocol: Forty male older Sprague-Dawley rats (6 months of age) were separated into 5 groups of 8 rats each. […] A control group (C) received peanut butter only daily at 0800 and 1800. Rat chow (Purina) was made available ad libitum. Treatment lasted two weeks. Blood samples were taken and retroperitoneal fat was dissected and weighed 18 days after the last day of treatment. This made it possible to assess long term effects of the treatment. […] All animals were fasted 6 hours prior to blood sampling and sacrifice.

[10] = 5 mg at 2230 h; cited from earlier work
[11] = 0.5 mg intramuscularly, cited from earlier work
[12] = cited from earlier work; remark: listed apart in the source
[13] = 0.5 or 0.75 mg s.c., cited from earlier work
[14] = in vivo; cited from earlier work; remark: listed apart in the source
[15] = in vivo; cited from earlier work; remark: listed apart in the source
[16] = test system: isolated fat cells; details: in vitro; cited from earlier work
[17] = test system: adipose tissue cyclic AMP phosphodiesterase; details: cited from earlier work
[18] = AM, 18 days after last treatment
[19] = PM, 18 days after last treatment
[20] = light-offset vs light-onset administration
[21] = dosed at 0800, 18 days post-treatment

## CCOC(=O)C(C)(C)Oc1ccc(Cl)cc1 [clofibrate]
[1]
  effectiveness: varies from subject to subject
  side effects: nephrotic syndromes, myalgia, nausea and abdominal pain

## CN1[C@@H]2C[C@@H](OC(=O)[C@H](CO)c3ccccc3)C[C@H]1[C@@H]1O[C@@H]12 [scopolamine]
[2]; 0.01 mg/kg orally 2 h before rotation
  susceptibility to motion sickness: significantly decreased
[2]; 0.01 mg/kg orally
  hormone concentrations (ACTH, cortisol, STH, prolactin) vs placebo: identical
[3]
  rapid eye movement latency: significant dose-related delay

## CC[C@H](C)C(=O)O[C@H]1C[C@@H](C)C=C2C=C[C@H](C)[C@H](CC[C@@H]3C[C@@H](O)CC(=O)O3)[C@H]21 [lovastatin]
[4]
  increase in HDL concentrations: 5-10%
  total cholesterol: specifically reduces total cholesterol
[5]
  HMG-CoA reductase inhibition: selectively inhibits

## CC(C)C[C@H]1C(=O)N2CCC[C@H]2[C@]2(O)O[C@](NC(=O)[C@@H]3C=C4c5cccc6[nH]c(Br)c(c56)C[C@H]4N(C)C3)(C(C)C)C(=O)N12 [bromocriptine]
[6]
  patients having aggravation: 4
  patients having improvement in glucose regulation: six
  patients showing no significant change: 14
[7]; 2 h prior to glucose challenge
  plasma glucose concentration: decrease
[7]
  Plasma Insulin: decrease with drug administration was significant
  plasma prolactin levels: decreased markedly

## C[N+]1(C)[C@@H]2C[C@@H](OC(=O)[C@H](CO)c3ccccc3)C[C@H]1[C@@H]1O[C@@H]12 [methyl scopolamine]
[8]; AM (light onset), 18 days after last treatment
  Retroperitoneal Fat: 2.78 ± 0.08 g
[8]; [18]
  Cholesterol: 94.7 ± 4.9 mg/dL
  Glucose: 151.8 ± 19.6 mg/dL
  HDL Cholesterol: 32.5 ± 4.1 mg/dL
  Insulin: 144.1 ± 5.9 μU/mL
  Triglycerides: 197 ± 18 mg/dL
[8]; PM (light offset), 18 days after last treatment
  Retroperitoneal Fat: 2.45 ± 0.07 g
[8]; [19]
  Cholesterol: 94.1 ± 5.7 mg/dL
  HDL Cholesterol: 45.2 ± 4.2 mg/dL
  Insulin: 163.8 ± 2.7 μU/mL
  Triglycerides: 106 ± 21 mg/dL
[8]; Table 6
  persistence after cessation of treatment: long-term effect that persists after cessation of the treatment
[8]; light onset or offset
  glucose, change in words: significantly reduced
  insulin, change in words: significantly reduced
  retroperitoneal fat, change in words: significantly reduced
[8]; [20]
  cholesterol, change in words: significantly increased cholesterol
  insulin, change in words: significantly reduced triglycerides and insulin
  triglycerides, change in words: significantly reduced triglycerides
[8]; only at light offset
  HDL, change in words: increased HDL
  triglycerides, change in words: significantly reduced
[9]; dosed at 0800
  food consumption, change in words: significant increase
  Cholesterol: 96.8 ± 1.8 mg/dL
  HDL-Chol: 43.9 ± 2.7 mg/dL
  Plasma Glucose: 158 ± 4
  Plasma Insulin: 118 ± 7
  Reproperitoneal Fat: 2.18 ± 0.31 g
  Triglyceride: 90.0 ± 3.1 mg/dL
  Food Consumption: 17.5 ± 1.3 g/day
[9]; [21]
  insulin resistance (plasma insulin and glucose), in words: improved insulin resistance
  plasma lipid indices, change in words: significantly reduced retroperitoneal body fat, plasma lipid indices
  retroperitoneal body fat, change in words: significantly reduced retroperitoneal body fat
[9]; dosed at 1800
  Cholesterol: 133.6 ± 1.9 mg/dL
  HDL-Chol: 61.0 ± 1.9 mg/dL
  Plasma Glucose: 148 ± 7
  Plasma Insulin: 171 ± 14
  Reproperitoneal Fat: 2.61 ± 0.19 g
  Triglyceride: 188.0 ± 5.7 mg/dL
  Food Consumption: 14.9 ± 1.0 g/day
[9]; only with administration at 1800
  HDL-cholesterol, change in words: increase
[10]
  dawn effect: decrease
  peak growth hormone concentrations after sleep: marked inhibition
[11]; 1/2 h before bedtime
  overall and mean peak growth hormone levels during the night: dramatically reduced
[11]
  insulin-induced hypoglycemia: did not affect sleep patterns or insulin-induced hypoglycemia
  prolactin levels during sleep: did not affect prolactin levels during sleep
  sleep patterns: did not affect sleep patterns
[12]; chronic use of 5 mg
  tolerability: not particularly well tolerated by most patients
[12]; given at bedtime
  dawn phenomenon: attenuated
  sleep induced growth hormone secretion: suppressed
[13]; after physostigmine
  elevated AVP levels: decreased
  elevated cortisol levels: decreased
  elevated prolactin levels: decreased
[13]
  growth hormone secretion: inhibited
[14]
  effect of physostigmine on plasma pituitary hormones (cortisol, prolactin, ACTH): inhibited
[15]
  half-life: 4 to 6 h

## CN1CCN(CC(=O)N2c3ccccc3C(=O)Nc3cccnc32)CC1 [pirenzepine]
[15]
  half-life: about 11 hours

## CN1[C@@H]2C[C@@H](OC(=O)[C@H](CO)c3ccccc3)C[C@H]1[C@@H]1O[C@@H]12 [scopolamine hydrobromide]
[16]
  glycerol release from isolated fat cells: did not significantly affect
[17]
  adipose tissue cyclic AMP phosphodiesterase activity: nor inhibited
